# Assay results from publication PMC6211316, “Synthesis and biological evaluation of 3-arylcoumarin derivatives as potential anti-diabetic agents” (Journal of Enzyme Inhibition and Medicinal Chemistry, 2018).
# Columns and labels:
# [1] = system: STZ-induced diabetic mice; assay: Daily treatment for 16 days in STZ-induced diabetic mice; assay type: in vivo
# Procedure: Thereafter, the target compounds 11, 17, 35, and glibenclamide were administered once (9 a.m.) on a daily basis, for a period of 16 days, to STZ-induced diabetic mice which were divided into five groups (A-E). A six group of normal mice (Group F) was used as a control. Groups E (diabetic control) and F received vehicle (0.05% Tween-80 in saline solution) per os for 16 days. Group A received glibenclamide (10 mg/kg of bw daily). Groups B–D received different treatments: B, compound 11 (30 mg/kg of bw daily); C, compound 17 (30 mg/kg of bw daily); D, compound 35 (30 mg/kg of bw daily). All tested materials were suspended in the same vehicle and administered per os daily for 16 days. The animals were housed under standard laboratory conditions and maintained with free access to water and food during all the experiment. Blood glucose concentration on animals of diabetic (Groups A–E) and control group (Group F) was estimated at days 1, 4, 7, 10, 13, and 16. The bw of the animals were measured concomitantly to the blood glucose analyses. All experiments were carried out using six animals per group.
# STZ-diabetic mice = assay: Acute hypoglycemic assay in STZ-diabetic mice; assay type: in vivo; conditions: for highest anti-hyperglycemic effect: STZ-diabetic mice; for Blood glucose concentration / % Variation of glycemia: STZ-diabetics mice
# Procedure: Type II diabetes mellitus was induced in mice by a single intraperitoneal injection of freshly prepared STZ (Sigma Aldrich) dissolved in 0.1M citrate buffer, pH 4.5, in a volume of 110 mg/kg of bw. After 7 days of STZ administration, blood glucose levels of each mouse were determined. Mice with blood glucose levels higher than 11 mM were considered diabetic and were included in the study.
# STZ-induced diabetic mice and normal mice were placed in single cages with wire-net floors and deprived of food for 12 h before experimentation but allowed free access to tap water throughout. The compounds (at the doses of 10, 30, and 100 mg/kg of bw) were suspended in 0.05% Tween-80 in saline solution. Glibenclamide (10 mg/kg of bw) was suspended in the same vehicle. The target compounds were freshly prepared immediately before experimentation and administered by the intragastrical route at the doses of 10 ml/kg of bw. Control mice received only the vehicle (0.05% Tween-80 in saline solution) by the same route. Blood glucose levels were measured at 0, 1.5, 3, 5, 7, and 9 h after drugs administration.
# [2] = hydroxyl radical scavenging; conditions: mean ± SD (n = 3), read-out: OH IC50 Value
# Method in brief: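 Fenton system of H2O2 (0.03%), FeSO4 (2 mmol/L) and salicylic acid (10 mmol/L) with compound solutions (0.4–2.0 mg/mL), incubated 30 min at 37 °C. Absorbance read at 510 nm. % OH scavenging = [A0−(A1−A2)]/A0×100, with A2 a sample blank using ethanol in place of salicylic acid.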
# α-Glucosidase = molecular target: T1, α-Glucosidase (Saccharomyces cerevisiae, UniProt P53341); assay: biochemical; assay type: biochemical; conditions: for α-glucosidase inhibitory activity (in words): in vitro; for IC50: mean ± SD (n = 3), read-out: α-Glucosidase inhibitory activity IC50 Value
# T1 construct: purchased Sigma Aldrich G0660-750UN
# Method in brief: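 Absorbance at 405 nm of released p-nitrophenol gave % inhibition, corrected for blank and sample-blank wells, and IC50 values, all in triplicate. Reactions combined yeast enzyme, PNPG and test compound in pH 6.8 phosphate buffer (100 mM) at 37 °C for 20 min following a 10-min preincubation, ended with Na2CO3.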
# T1 sequence (P53341 whole entry): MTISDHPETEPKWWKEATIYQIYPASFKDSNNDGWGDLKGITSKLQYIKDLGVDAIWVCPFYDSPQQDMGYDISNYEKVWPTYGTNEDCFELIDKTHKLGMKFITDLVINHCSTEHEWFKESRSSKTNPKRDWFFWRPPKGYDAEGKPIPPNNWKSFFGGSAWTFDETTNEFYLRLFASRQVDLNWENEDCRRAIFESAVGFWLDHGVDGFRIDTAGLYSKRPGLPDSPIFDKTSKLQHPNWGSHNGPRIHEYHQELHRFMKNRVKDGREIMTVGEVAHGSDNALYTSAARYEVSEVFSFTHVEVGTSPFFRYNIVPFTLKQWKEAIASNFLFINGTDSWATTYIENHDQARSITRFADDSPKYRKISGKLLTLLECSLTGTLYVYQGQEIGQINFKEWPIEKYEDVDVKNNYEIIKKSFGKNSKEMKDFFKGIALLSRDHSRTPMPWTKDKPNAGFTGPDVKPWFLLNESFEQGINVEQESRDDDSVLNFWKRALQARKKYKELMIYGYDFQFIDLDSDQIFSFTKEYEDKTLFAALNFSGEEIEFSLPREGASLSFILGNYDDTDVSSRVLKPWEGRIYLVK
smiles,measurement,setting,value
"O=c1oc2ccc(O)cc2cc1-c1ccc(O)cc1 [Compound 17, 6-Hydroxy-3-(4-hydroxyphenyl)-coumarin]",bw loss in hyperglycemic mice,"[1]; 30 mg/kg of bw daily per os, 16 days",prevented bw loss
same,long-term anti-hyperglycemic effect (blood glucose levels),"[1]; 30 mg/kg of bw oral, once a day, for 16 days",induced obviously anti-hyperglycemic effect
same,hypoglycemic effect,"STZ-diabetic mice; STZ-diabetic animals, 30 mg/kg of bw, started from 3 h and persisted throughout the experiment",> 50%
same,highest anti-hyperglycemic effect,"STZ-diabetic mice; 30 mg/kg, at 9 h",~70.39%
same,highest anti-hyperglycemic effect,"STZ-diabetic mice; 100 mg/kg, at 7 h",~70.51%
same,Blood glucose concentration,"STZ-diabetic mice; 10 mg/kg of bw per os, 0h",26.9 ± 3.8 mM
same,% Variation of glycemia,"STZ-diabetic mice; 10 mg/kg of bw per os, 1.5h",(−8.92) %
same,Blood glucose concentration,"STZ-diabetic mice; 10 mg/kg of bw per os, 1.5h",24.5 ± 3.0 mM
same,% Variation of glycemia,"STZ-diabetic mice; 10 mg/kg of bw per os, 3h",(−15.24) %
same,Blood glucose concentration,"STZ-diabetic mice; 10 mg/kg of bw per os, 3h",22.8 ± 2.3 mM
same,% Variation of glycemia,"STZ-diabetic mice; 10 mg/kg of bw per os, 5h",(−38.29) %
same,Blood glucose concentration,"STZ-diabetic mice; 10 mg/kg of bw per os, 5h",16.6 ± 5.8 mM
same,% Variation of glycemia,"STZ-diabetic mice; 10 mg/kg of bw per os, 7h",(−44.98) %
same,Blood glucose concentration,"STZ-diabetic mice; 10 mg/kg of bw per os, 7h",14.8 ± 8.0 mM
same,% Variation of glycemia,"STZ-diabetic mice; 10 mg/kg of bw per os, 9h",(−45.35) %
same,Blood glucose concentration,"STZ-diabetic mice; 10 mg/kg of bw per os, 9h",14.7 ± 9.5 mM
same,Blood glucose concentration,"STZ-diabetic mice; 30 mg/kg of bw per os, 0h",23.3 ± 3.2 mM
same,% Variation of glycemia,"STZ-diabetic mice; 30 mg/kg of bw per os, 1.5h",(−23.18) %
same,Blood glucose concentration,"STZ-diabetic mice; 30 mg/kg of bw per os, 1.5h",17.9 ± 5.7 mM
same,% Variation of glycemia,"STZ-diabetic mice; 30 mg/kg of bw per os, 3h",(−50.22) %
same,Blood glucose concentration,"STZ-diabetic mice; 30 mg/kg of bw per os, 3h",11.6 ± 4.8 mM
same,% Variation of glycemia,"STZ-diabetic mice; 30 mg/kg of bw per os, 5h",(−64.38) %
same,Blood glucose concentration,"STZ-diabetic mice; 30 mg/kg of bw per os, 5h",8.3 ± 3.8 mM
same,% Variation of glycemia,"STZ-diabetic mice; 30 mg/kg of bw per os, 7h",(−68.24) %
same,Blood glucose concentration,"STZ-diabetic mice; 30 mg/kg of bw per os, 7h",7.4 ± 6.7 mM
same,% Variation of glycemia,"STZ-diabetic mice; 30 mg/kg of bw per os, 9h",(−70.39) %
same,Blood glucose concentration,"STZ-diabetic mice; 30 mg/kg of bw per os, 9h",6.9 ± 7.9 mM
same,Blood glucose concentration,"STZ-diabetic mice; 100 mg/kg of bw per os, 0h",23.4 ± 5.7 mM
same,% Variation of glycemia,"STZ-diabetic mice; 100 mg/kg of bw per os, 1.5h",(−19.66) %
same,Blood glucose concentration,"STZ-diabetic mice; 100 mg/kg of bw per os, 1.5h",18.8 ± 6.0 mM
same,% Variation of glycemia,"STZ-diabetic mice; 100 mg/kg of bw per os, 3h",(−46.58) %
same,Blood glucose concentration,"STZ-diabetic mice; 100 mg/kg of bw per os, 3h",12.5 ± 4.7 mM
same,% Variation of glycemia,"STZ-diabetic mice; 100 mg/kg of bw per os, 5h",(−67.52) %
same,Blood glucose concentration,"STZ-diabetic mice; 100 mg/kg of bw per os, 5h",7.6 ± 3.8 mM
same,% Variation of glycemia,"STZ-diabetic mice; 100 mg/kg of bw per os, 7h",(−70.51) %
same,Blood glucose concentration,"STZ-diabetic mice; 100 mg/kg of bw per os, 7h",6.9 ± 2.6 mM
same,% Variation of glycemia,"STZ-diabetic mice; 100 mg/kg of bw per os, 9h",(−65.81) %
same,Blood glucose concentration,"STZ-diabetic mice; 100 mg/kg of bw per os, 9h",8.0 ± 2.3 mM
same,IC50,[2],> 1000 µM
same,α-glucosidase inhibitory activity (in words),α-Glucosidase,moderate to excellent inhibitory activity
same,IC50,α-Glucosidase,11.5 ± 1.3 µM
"Cc1ccc(-c2cc3c(O)cc(O)cc3oc2=O)cc1 [Compound 25, 5,7-Dihydroxy-3-(4-methylphenyl)-coumarin]",Blood glucose concentration,"STZ-diabetic mice; 10 mg/kg of bw per os, 0h",19.7 ± 6.1 mM
same,% Variation of glycemia,"STZ-diabetic mice; 10 mg/kg of bw per os, 1.5h",(−20.30) %
same,Blood glucose concentration,"STZ-diabetic mice; 10 mg/kg of bw per os, 1.5h",15.7 ± 6.6 mM
same,% Variation of glycemia,"STZ-diabetic mice; 10 mg/kg of bw per os, 3h",(−24.37) %
same,Blood glucose concentration,"STZ-diabetic mice; 10 mg/kg of bw per os, 3h",14.9 ± 6.5 mM
same,% Variation of glycemia,"STZ-diabetic mice; 10 mg/kg of bw per os, 5h",(−50.76) %
same,Blood glucose concentration,"STZ-diabetic mice; 10 mg/kg of bw per os, 5h",9.7 ± 3.4 mM
same,% Variation of glycemia,"STZ-diabetic mice; 10 mg/kg of bw per os, 7h",(−64.97) %
same,Blood glucose concentration,"STZ-diabetic mice; 10 mg/kg of bw per os, 7h",6.9 ± 3.9 mM
same,% Variation of glycemia,"STZ-diabetic mice; 10 mg/kg of bw per os, 9h",(−56.85) %
same,Blood glucose concentration,"STZ-diabetic mice; 10 mg/kg of bw per os, 9h",8.5 ± 2.2 mM
same,Blood glucose concentration,"STZ-diabetic mice; 30 mg/kg of bw per os, 0h",24.8 ± 4.9 mM
same,% Variation of glycemia,"STZ-diabetic mice; 30 mg/kg of bw per os, 1.5h",(−12.50) %
same,Blood glucose concentration,"STZ-diabetic mice; 30 mg/kg of bw per os, 1.5h",21.7 ± 3.9 mM
same,% Variation of glycemia,"STZ-diabetic mice; 30 mg/kg of bw per os, 3h",(−36.23) %
same,Blood glucose concentration,"STZ-diabetic mice; 30 mg/kg of bw per os, 3h",15.8 ± 4.5 mM
same,% Variation of glycemia,"STZ-diabetic mice; 30 mg/kg of bw per os, 5h",(−64.11) %
same,Blood glucose concentration,"STZ-diabetic mice; 30 mg/kg of bw per os, 5h",8.9 ± 6.3 mM
same,% Variation of glycemia,"STZ-diabetic mice; 30 mg/kg of bw per os, 7h",(−63.71) %
same,Blood glucose concentration,"STZ-diabetic mice; 30 mg/kg of bw per os, 7h",9.0 ± 4.8 mM
same,% Variation of glycemia,"STZ-diabetic mice; 30 mg/kg of bw per os, 9h",(−64.11) %
same,Blood glucose concentration,"STZ-diabetic mice; 30 mg/kg of bw per os, 9h",8.9 ± 3.8 mM
same,Blood glucose concentration,"STZ-diabetic mice; 100 mg/kg of bw per os, 0h",23.0 ± 4.8 mM
same,% Variation of glycemia,"STZ-diabetic mice; 100 mg/kg of bw per os, 1.5h",(−20.44) %
same,Blood glucose concentration,"STZ-diabetic mice; 100 mg/kg of bw per os, 1.5h",18.3 ± 3.5 mM
same,% Variation of glycemia,"STZ-diabetic mice; 100 mg/kg of bw per os, 3h",(−25.36) %
same,Blood glucose concentration,"STZ-diabetic mice; 100 mg/kg of bw per os, 3h",17.2 ± 2.9 mM
same,% Variation of glycemia,"STZ-diabetic mice; 100 mg/kg of bw per os, 5h",(−56.95) %
same,Blood glucose concentration,"STZ-diabetic mice; 100 mg/kg of bw per os, 5h",9.9 ± 2.7 mM
same,% Variation of glycemia,"STZ-diabetic mice; 100 mg/kg of bw per os, 7h",(−64.78) %
same,Blood glucose concentration,"STZ-diabetic mice; 100 mg/kg of bw per os, 7h",8.1 ± 1.6 mM
same,% Variation of glycemia,"STZ-diabetic mice; 100 mg/kg of bw per os, 9h",(−60.43) %
same,Blood glucose concentration,"STZ-diabetic mice; 100 mg/kg of bw per os, 9h",9.1 ± 2.3 mM
same,IC50,[2],> 1000 µM
same,α-glucosidase inhibitory activity (in words),α-Glucosidase,moderate to excellent inhibitory activity
same,IC50,α-Glucosidase,11.5 ± 0.37 µM
